“Also recorded” adds a separate entry of the source.

The term IC50 denotes the midpoint of a concentration-inhibition curve. Read a high IC50 as a need for much substance. One may read the inhibition as the change of the read-out against control, counted positive when it falls. As usually defined, the half-life is how long it takes for the measured level to halve.

One data set deals with C57BL/6 mice. Nature of the data set: In vivo dose tolerability in C57BL/6 mice. Details: species or system mouse. As to conditions: intraperitoneal, 4 consecutive days, female C57BL/6 mice. The protocol: Given compound 54's effectiveness at functional inhibition of αvβ3, its rapid conversion to a stable carboxylic acid, and our preference for developing an aminopyridine-based RGD mimetic over a THN-based one, 54 was therefore selected for in vivo dose tolerability studies in an immunocompetent C57BL/6 mouse model (Fig. 2).
Compound 54 was administered intraperitoneally three dose levels, up to its maximum soluble dose of 300 mg kg^−1 per day, for 4 consecutive days to female C57BL/6 immunocompetent mice, and mice were observed daily, and bodyweight measured frequently. […] Mo = mouse; Cont = solvent control.
Female adult C57BL/6 mice were used (Envigo, Blackthorn, UK). Mice all came from the same delivery and were randomly assigned to cages. They were kept in cages housed in isolation cabinets in an air-conditioned room with regular alternating cycles of light and darkness. They received Teklad 2018 diet (Envigo, Blackthorn, UK) and water ad libitum.
For evaluation of the safety of compound 54in vivo, the compound was dissolved in 15% DMSO/arachis oil, and then administered intraperitoneally as a single dose on four consecutive days, with the first day designated day 0, with 2 mice being treated at each dose level. The control was solvent administered intraperitoneally on the same schedule. […] Mice were observed daily for signs of deleterious effects, and bodyweight measured frequently.

The target in the next data set is T1, αvβ3 (Homo sapiens, UniProt P05106+P06756).
T1 construct: αvβ3-expressing U87-MG glioblastoma and SK-Mel-2 melanoma cells; host or cells: SK-Mel-2 human melanoma cells
T1 sequence (P06756 31-889 limits assumed): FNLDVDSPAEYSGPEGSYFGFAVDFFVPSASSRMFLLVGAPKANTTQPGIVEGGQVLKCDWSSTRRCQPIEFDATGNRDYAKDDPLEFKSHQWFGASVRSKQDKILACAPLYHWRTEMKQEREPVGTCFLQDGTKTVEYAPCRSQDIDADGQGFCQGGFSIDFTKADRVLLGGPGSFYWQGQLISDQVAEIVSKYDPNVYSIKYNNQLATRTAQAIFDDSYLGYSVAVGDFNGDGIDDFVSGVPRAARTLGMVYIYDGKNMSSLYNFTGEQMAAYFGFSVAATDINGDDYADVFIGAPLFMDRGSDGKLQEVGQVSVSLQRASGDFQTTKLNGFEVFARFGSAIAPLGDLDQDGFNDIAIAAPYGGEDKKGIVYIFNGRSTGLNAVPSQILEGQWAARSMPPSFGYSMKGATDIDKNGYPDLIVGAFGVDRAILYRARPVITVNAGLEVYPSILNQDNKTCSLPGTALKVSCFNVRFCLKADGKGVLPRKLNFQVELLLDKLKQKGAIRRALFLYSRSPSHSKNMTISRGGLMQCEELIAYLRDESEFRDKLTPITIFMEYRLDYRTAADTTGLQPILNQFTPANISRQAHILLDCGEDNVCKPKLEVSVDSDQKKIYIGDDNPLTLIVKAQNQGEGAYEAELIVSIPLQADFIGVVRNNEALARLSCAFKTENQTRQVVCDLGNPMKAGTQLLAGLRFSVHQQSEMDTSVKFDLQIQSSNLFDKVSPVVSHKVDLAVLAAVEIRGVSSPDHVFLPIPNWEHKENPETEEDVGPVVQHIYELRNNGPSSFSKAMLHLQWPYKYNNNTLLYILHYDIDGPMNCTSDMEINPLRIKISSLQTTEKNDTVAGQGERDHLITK
T1 sequence (P06756 891-1048 partner limits assumed): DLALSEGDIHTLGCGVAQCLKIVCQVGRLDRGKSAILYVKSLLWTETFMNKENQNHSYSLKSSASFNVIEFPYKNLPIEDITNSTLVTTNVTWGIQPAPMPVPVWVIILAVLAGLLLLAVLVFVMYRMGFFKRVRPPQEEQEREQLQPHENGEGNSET
T1 sequence (P05106 27-788): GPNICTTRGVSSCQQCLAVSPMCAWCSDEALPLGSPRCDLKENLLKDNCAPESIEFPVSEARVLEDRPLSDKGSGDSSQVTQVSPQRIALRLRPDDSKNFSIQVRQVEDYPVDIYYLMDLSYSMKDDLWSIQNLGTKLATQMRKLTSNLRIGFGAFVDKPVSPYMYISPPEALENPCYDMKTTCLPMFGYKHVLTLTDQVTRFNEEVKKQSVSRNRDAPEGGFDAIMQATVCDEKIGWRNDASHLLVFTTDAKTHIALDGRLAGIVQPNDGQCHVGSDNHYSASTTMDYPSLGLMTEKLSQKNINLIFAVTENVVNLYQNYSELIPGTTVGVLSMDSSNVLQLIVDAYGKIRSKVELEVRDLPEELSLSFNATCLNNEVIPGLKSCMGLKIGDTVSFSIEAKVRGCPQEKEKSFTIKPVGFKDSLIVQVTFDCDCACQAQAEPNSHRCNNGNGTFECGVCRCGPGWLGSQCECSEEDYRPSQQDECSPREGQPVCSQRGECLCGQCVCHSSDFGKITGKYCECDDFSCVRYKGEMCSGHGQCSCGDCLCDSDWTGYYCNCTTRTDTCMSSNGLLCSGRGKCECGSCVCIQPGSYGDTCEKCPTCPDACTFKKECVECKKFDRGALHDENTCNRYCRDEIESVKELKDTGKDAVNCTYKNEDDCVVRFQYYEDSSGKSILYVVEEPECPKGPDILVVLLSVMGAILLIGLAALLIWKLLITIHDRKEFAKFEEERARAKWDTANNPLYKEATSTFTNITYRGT
Nature of the data set: αvβ3-mediated SK-Mel-2 melanoma cell adhesion to fibronectin. In kind it is cell-based. Conditions: SK-Mel-2 adhesion to fibronectin, mean ± SD. As for the experimental part: (§1) Cancer cell lines were obtained from ATCC (SK-Mel-2) or ECACC (U87-MG) and cultured in RPMI-1640 culture medium containing 10% foetal bovine serum (FBS), sodium pyruvate (1 mM) and L-glutamine (2 mM). All are human in origin. The αvβ3 adhesion assay was performed as previously described.[22,43]

Data set [1] has as its system U87-MG glioblastoma cells. Briefly: U87-MG 3-D spheroid invasion assay. It is filed as cell-based. As to conditions: Homo sapiens, U-87 MG, mean ± SD. The protocol: Selected compounds were further investigated for effects on αvβ3-mediated cell invasion to model a key step in tumour progression and metastasis. U87-MG glioblastoma cells; a well-known αvβ3-expressing cell line model,[35,36] were used in a 3-D spheroid invasion model.[37]
as §1
Spheroids were formed from U87-MG cells (1000 cells per 30 μl hanging drop) according to the method of Nowicki and then embedded in collagen as follows.[37] Collagen I (1400 μL of 3 mg mL^−1) was added to a 1 mL Eppendorf tube on ice, supplemented with 0.2 mL of complete RPMI, and adjusted to pH 7.4 with 1 N NaOH. The collagen mixture was pipetted into each chamber of an 8-chamber cover glass and incubated at 37 °C for 45 minutes. Spheroids from hanging drops were transferred to each chamber of the cover glass, the medium allowed to evaporate, and then a 200 μL layer of collagen gel matrix was added to each chamber and incubated at 37 °C for 45 minutes. 200 μL of RPMI containing test compounds was added to each chamber and incubated at 37 °C, 5% CO2 for 7 days. The spheroids were observed frequently using inverted light microscopy at 10× objective lens, and images were captured and analysed using ImageJ.

The nature of data set [2]: Metabolic stability in mouse liver homogenates. Conditions: liver homogenate (1:3), 10 μM, 37 °C, read-out: half-life of methyl ester cleavage to free acid. It is filed as in vitro ADME. As for the experimental part:
The methyl esters in 1 and 54 were cleaved to the corresponding free acids with half-lives of 5.4 minutes and 3.6 minutes respectively (ESI ^†). This was expected as small esters are frequently used to mask carboxylic acids with rapid ester hydrolysis releasing the active carboxylic acid in biological systems.
Compound metabolism in liver (ex vivo) was studied using (1 : 3) tissue homogenates of mouse liver. Mouse livers, supplied by the Institute of Cancer Therapeutics (ICT), under Home Office license guidelines (see below) were homogenized in phosphate-buffered saline. Liver homogenates were spiked with compound of interest (10 μM final concentration) and incubated at 37 °C. Reaction aliquots were removed over a 120 minute period, proteins precipitated using acetonitrile (1 : 3), and compound and metabolites analyzed by liquid chromatography-mass spectrometry (LC–MS) at the appropriate SIR (single ion recording) channel.
Detection was performed on a Waters Alliance system using a photodiode array detector, and a Waters Micromass ZQ quadrupole electrospray mass spectrometer connected in series. Compound and metabolites were separated on a RPB reversed-phase high-performance liquid chromatography column (HiChrom) using a mobile phase of acetonitrile/water/0.1% formic acid, with a gradient from 20% to 70% acetonitrile over 30 minutes at 1.1 mL min^−1.
Any metabolic intermediates were detected as singularly charged ions and identified by mass spectrometry.

Take `CNc1cccc(CC[C@H]2C[C@@H](C(=O)NC[C@H](NS(=O)(=O)c3c(C)cc(C)cc3C)C(=O)OC)C2)n1` [Compound 54]: in the data set with C57BL/6 mice (three dose levels up to 300 mg kg^−1 per day), the “toxicity / deleterious effects” value was “No deleterious effects were observed; also recorded: non-toxic”. Besides, the bodyweight result with C57BL/6 mice (up to 300 mg kg^−1 per day) is reported as “remained within normal levels”. For the same compound, half-maximal inhibition at αvβ3 (IC50) required 600 ± 700 nM. Further, at αvβ3 (read-out: Adhesion % inhibition @5 μM, 5 μM), the inhibition at 5 µM was found to be 84.9 ± 11.2%. Further, the inhibition at 10 µM in data set [1] stood at 48.6 ± 1%. Further, the half-life at 10 μM in data set [2] came to 3.6 min.

The values are drawn from article PMC11393731, “Sidechain structure–activity relationships of cyclobutane-based small molecule αvβ3 antagonists” (RSC Medicinal Chemistry, 2024).
